# Values of other authors, collected in patent US12419890B2, “Administration of sumo-activating enzyme inhibitor and checkpoint inhibitors” (Takeda Pharmaceutical Company Limited, priority 2019, dated 2025).
# Read-outs that look alike come from different tables or passages of the source.
# Tests used:
# [1] = tested on: recurrent or metastatic cervical cancer; conditions: cited from earlier work
# [2] = tested on: MSI-H CRC; conditions: MSI-H CRC patients that progressed to fluoropyrimidine, oxaliplatin, and irinotecan containing regimens; cited from earlier work
# [3] = tested on: advanced cervical cancer, PD-L1 CPS>=1; conditions: cited from earlier work
# [4] = tested on: advanced NSCLC; conditions: cited from earlier work
# [5] = tested on: metastatic CRC; conditions: stated jointly for both drugs; cited from earlier work
# [6] = 200 mg IV every three weeks, 77 patients
compound,measurement,setting,value
bevacizumab,HR for PFS,"[1]; bevacizumab added to standard first line chemotherapy vs chemotherapy alone, 95% CI 0.54-0.82",0.67
same,HR for OS,"[1]; bevacizumab added to standard first line chemotherapy vs chemotherapy alone, 95% CI 0.54-0.95",0.71
same,median PFS,"[1]; bevacizumab added to standard first line chemotherapy, vs 5.9 months chemotherapy alone",8.2 months
same,median OS,"[1]; bevacizumab added to standard first line chemotherapy, vs 13.3 months chemotherapy alone",17.0 months
pembrolizumab,ORR,[2],36%
same,responders whose DOR lasted more than six months,[2],78%
same,complete responses (CRs),[3]; [6],2.6%
same,partial responses (PRs),[3]; [6],11.7%
same,overall response rate (ORR),"[3]; 200 mg IV every three weeks, 77 patients, median follow-up 11.7 months, 95% CI 7.4, 24.1",14.3%
same,estimated median duration of response (DOR),[3]; 11 patients with a response by independent review,not reached
same,responders with a DOR of greater than or equal to 6 months,[3]; 11 patients with a response,91%
same,5-year OS rate,"[4]; previously treated patients, PD-L1 expression 1 to 49%",12.6%
same,5-year OS rate,"[4]; previously treated patients, PD-L1 expression <1%",3.5%
same,5-year OS rate,"[4]; previously treated patients, PD-L1 expression >=50%",25%
same,5-year OS rate,[4]; treatment-naive patients with PD-L1 expression >=50%,29.6%
same,5-year OS rate,"[4]; treatment-naive patients, PD-L1 <50%",15.7%
CNC(=O)c1cc(Oc2ccc(NC(=O)Nc3ccc(Cl)c(C(F)(F)F)c3)c(F)c2)ccn1 [regorafenib],median OS,[5],7 months
same,median PFS,[5],2 months
nivolumab,ORR,[2],28%
same,responders whose DOR lasted more than six months,[2],67%
trifluridine-tipiracil,median OS,[5],7 months
same,median PFS,[5],2 months
